Test results as given in PubChem BioAssay AID743443 (The Scripps Research Institute Molecular Screening Center, 2014).
Calls of active or inactive are those of the source. The rule behind the calls is not given here.

What follows are compounds tested against Sphingosine 1-phosphate receptor 5 (Homo sapiens) (UniProt Q9H228) (assay: antagonism at human S1PR5 – cell-based, FRET, dose response, selectivity assay for S1PR3 antagonist project, late-stage follow-up (AID 743443)). Details: S1P5 FRET cell-based antagonist assay.
Chain of Sphingosine 1-phosphate receptor 5 (Homo sapiens) (Q9H228 whole entry, looked up): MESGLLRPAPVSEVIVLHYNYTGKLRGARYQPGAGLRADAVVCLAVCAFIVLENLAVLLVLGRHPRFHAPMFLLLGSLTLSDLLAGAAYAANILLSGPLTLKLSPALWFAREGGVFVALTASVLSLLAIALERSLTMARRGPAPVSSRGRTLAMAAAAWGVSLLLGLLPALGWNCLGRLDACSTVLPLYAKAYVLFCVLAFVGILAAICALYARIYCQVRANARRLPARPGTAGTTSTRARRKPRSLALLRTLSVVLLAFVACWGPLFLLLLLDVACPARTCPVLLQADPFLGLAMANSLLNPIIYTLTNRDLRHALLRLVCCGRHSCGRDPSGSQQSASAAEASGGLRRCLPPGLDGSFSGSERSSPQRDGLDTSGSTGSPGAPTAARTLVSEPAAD

Structure (SMILES)	IC50
O=C(c1cccc(Cl)c1)N(CCO)C(c1ccc(Cl)c(Cl)c1)c1nc(-c2ccccc2)no1 (stereo not given)	9.9 µM
CCc1ccc(C(NC(=O)c2cccc(Cl)c2)c2nc(-c3ccccc3)no2)cc1 (stereo not given)	> 28.2 µM (inactive)
O=C(NC(c1cccc(Cl)c1)c1nc(-c2ccccc2)no1)c1cc(Cl)cc(Cl)c1 (stereo not given)	> 28.2 µM (inactive)
O=C(NC(c1ccc(Cl)cc1)c1nc(-c2ccccc2)no1)c1ccc(Cl)c(Br)c1 (stereo not given)	> 28.2 µM (inactive)
O=C(NC(c1ccc(Cl)c(Cl)c1)c1nc(-c2ccccc2)no1)c1ccc(Cl)c(Cl)c1 (stereo not given)	> 28.2 µM (inactive)
O=C(NC(c1ccc(Cl)cc1)c1nc(-c2ccccc2)no1)c1cccc(Cl)c1 (stereo not given)	> 28.2 µM (inactive)
O=C(NC(c1ccc(Cl)c(Cl)c1)c1nc(-c2ccccc2)no1)c1cccc(Cl)c1 (stereo not given)	inactive
O=C(NC(c1ccccc1)c1nc(-c2ccccc2)no1)c1ccc(Cl)cc1 (stereo not given)	> 28.2 µM (inactive)
O=C(NC(Cc1ccccc1)c1nc(-c2ccccc2)no1)c1cccc(Cl)c1 (stereo not given)	inactive
O=C(NC(c1ccc(Cl)cc1)c1nc(-c2cccc(Cl)c2)no1)c1cccc(Cl)c1 (stereo not given)	> 28.2 µM (inactive)
O=C(NC(c1ccc(Br)cc1)c1nc(-c2ccccc2)no1)c1ccc(Cl)c(Cl)c1 (stereo not given)	> 28.2 µM (inactive)
O=C(NC(c1nc(-c2ccccc2)no1)C1CCOCC1)c1ccc(Cl)c(Cl)c1 (stereo not given)	> 28.2 µM (inactive)
O=C(NC(c1ccccc1)c1nc(-c2ccccc2)no1)c1cccc(Br)c1 (stereo not given)	> 28.2 µM (inactive)
Cc1ccc(C(=O)NC(c2ccccc2)c2nc(-c3ccccc3)no2)cc1 (stereo not given)	> 28.2 µM (inactive)
O=C(NC(c1ccc(Cl)cc1)c1nc(-c2ccccc2)no1)c1ccc(Cl)c(Cl)c1 (stereo not given)	> 28.2 µM (inactive)

The remaining lines, values ahead:

IC50	Structure (SMILES)
inactive	N#Cc1ccc(C(=O)NC(c2ccc(Cl)c(Cl)c2)c2nc(-c3ccccc3)no2)cc1 (stereo not given)
> 28.2 µM (inactive)	COc1ccc(C(=O)NC(c2ccccc2)c2nc(-c3ccccc3)no2)cc1 (stereo not given)
> 28.2 µM (inactive)	O=C(NC(c1ccc(Cl)cc1)c1nc(-c2ccccn2)no1)c1cccc(Cl)c1 (stereo not given)
inactive	O=C(NC(c1ccccc1)c1nc(-c2ccccc2)no1)c1cccc(Cl)n1 (stereo not given)
> 28.2 µM (inactive)	O=C(NC(c1ccccc1)c1nc(-c2ccccc2)no1)c1cccc(Cl)c1 (stereo not given)
5.1 µM	O=C(NC(c1cccc(Cl)c1)c1nc(-c2ccccc2)no1)c1cccc(Cl)c1 (stereo not given)
inactive	O=C(NC(c1ccc(Cl)cc1)c1nc(-c2ccccc2)no1)c1cccc(Br)c1 (stereo not given)
> 28.2 µM (inactive)	O=C(NC(c1cccc(Cl)c1)c1nc(-c2ccccc2)no1)c1ccc(Cl)c(Cl)c1 (stereo not given)
inactive	O=C(NC(c1ccc(Cl)c(Cl)c1)c1nc(-c2ccccc2)no1)c1ccc(Cl)cc1 (stereo not given)
> 28.2 µM (inactive)	O=C(NC(c1ccc(Cl)c(Cl)c1)c1nc(-c2ccccc2)no1)c1ccccc1 (stereo not given)
